Entries after “also recorded” stand apart in the source; their conditions may differ.

The record followed here is paper PMC6287599, “2,6-Bis(2-Benzimidazolyl)Pyridine (BBP) Is a Potent and Selective Inhibitor of Small Conductance Calcium-Activated Potassium (SK) Channels” (Frontiers in Pharmacology, 2018).

One assay concerns the target T1, hIK (Homo sapiens, UniProt O15554).
T1 construct: expressed in transfected cells; host or cells: HEK293 (transient, co-transfected with eGFP)
Kind of assay: Manual whole cell patch clamp, HEK293 transiently transfected with hIK. Format: cell-based. The following applies: BBP 1 μM, n = 6.

Another assay deals with hSK3 (Homo sapiens, UniProt Q9UGI6). The experiment in a line: Automated patch clamp (QPatch 16), whole cell, stable HEK293 cell line expressing hSK3. In kind it is cell-based. To be noted: HEK stable line, 400 nM free intracellular calcium, mean ± SEM, n = 9. The procedure:
(§1) Three different stable HEK293 cell lines expressing hSK1, hSK2 or hSK3 (NeuroSearch A/S, Ballerup, Denmark) and a CHO stable cell line expressing hERG (University of Copenhagen, Copenhagen, Denmark) were used for automated patch clamp. These cells were cultivated and prepared as previously described (Skarsfeldt et al., [2016]).
(§2) Automated patch clamp (QPatch 16, Sophion, Denmark) on SK-expressing HEK293 cell lines was conducted as previously described (Simó-Vicens et al., [2017b]). Briefly, SK currents were elicited by voltage-ramps starting at −80 mV and finishing at +80 mV from a holding potential of 0 mV. Extracellular solution contained 0.1 mM CaCl2, 3 mM MgCl2, 154 mM KCl, 10 mM HEPES and 10 mM glucose with pH 7.4. Intracellular solution for SK experiments contained 8.106 mM CaCl2 (final free calcium concentration of 400 nM), 1.167 mM MgCl2, 10 mM EGTA, 154 mM KCl, 10 mM HEPES, 31.25/ 10 mM KOH/EGTA and 15 mM KOH with pH 7.2. Automated patch clamp on hERG-expressing CHO cell line was performed also as previously described (Skarsfeldt et al., [2016]).
(§3) Individual IC50 values were calculated for each cell with the built-in nonlinear fit log(inhibitor) vs. normalized response equation:
(§4) Where Y is the normalized response, from 100, corresponding to current recorded during saline perfusion, down to 0, corresponding to currents recorded in the presence of bicuculline methiodide 100 μM. […]
In general terms: Patch clamp records ionic current or voltage across a cell membrane.

The next assay concerns all SK channel subtypes. The experiment in a line: Manual patch clamp, summary over all SK channel subtypes. The following applies: BBP 1 μM. In kind it is cell-based, human. As for the experimental part:
(§5) HEK293 cells were transiently co-transfected with the plasmid of interest (hBK, hSK1, hSK2, hSK3 WT, rSK3 H491N, or hIK) and eGFP using standard Lipofectamine™ 2000 (Thermo Fisher Scientific, Waltham, Massachussets, USA) transfection protocols. After transfection, cells were incubated overnight before the experiments.
(§6) Manual patch clamp experiments were performed at room temperature in the whole cell configuration with a HEKA EPC9 amplifier and the Patchmaster software (HEKA Elektronik, Ludwigshafen, Germany). All currents were elicited every 2 s using an incremental 200 ms voltage-ramp protocol starting at −80 mV and finishing at +80 mV from a holding potential of 0 mV. […] Currents were measured using the same solutions as the ones used for automated patch clamp, with symmetrical potassium concentrations and a free intracellular calcium concentration of 400 nM. […]
(§7) To assess the effect of BBP on other calcium-activated potassium channels (hBK, hSK3 WT, rSK3 H491N, and hIK), each individual current was first normalized to its cell size using membrane's capacitance (pA/pF) before statistical analysis. […] Statistical significance between saline and the effect of both BBP and the corresponding reference compound was determined for each channel using one-way ANOVA analysis. […]

The target in a further assay is hSK2 (Homo sapiens, UniProt Q9H2S1). Kind of assay: Automated patch clamp (QPatch 16), whole cell, stable HEK293 cell line expressing hSK2. To be noted: HEK stable line, 400 nM free intracellular calcium, mean ± SEM, n = 8. Format: cell-based. The procedure: as §1, §2, §3, §4
The next assay addresses T2, hSK3 WT (Homo sapiens, UniProt Q9UGI6).
T2 construct: expressed in transfected cells; host or cells: HEK293 (transient, co-transfected with eGFP)
The experiment in a line: Manual whole cell patch clamp, HEK293 transiently transfected with hSK3 WT. The following applies: BBP 1 μM, compared to positive control bicuculline methiodide 100 μM, n = 5, read-out: Inhibition of hSK3 current. In kind it is cell-based. As for the experimental part:
as §5, §6, §7

Procedure for hIK: Manual patch clamp experiments were performed at room temperature in the whole cell configuration with a HEKA EPC9 amplifier and the Patchmaster software (HEKA Elektronik, Ludwigshafen, Germany). All currents were elicited every 2 s using an incremental 200 ms voltage-ramp protocol starting at −80 mV and finishing at +80 mV from a holding potential of 0 mV. Borosilicate glass pipettes were pulled with a horizontal puller (DMZ Universal Puller, Zeitz Instruments, Martinsried, Germany) with resistances 2.5–3 MΩ. Currents were measured using the same solutions as the ones used for automated patch clamp, with symmetrical potassium concentrations and a free intracellular calcium concentration of 400 nM. […] On the day of the experiment, cells were rinsed with magnesium-free PBS and detached with Detachin™ (Amsbio, Abingdon, United Kingdom) before being plated on 0.5 mm diameter coverslips. Only fluorescent cells were considered for patch clamp experiments.
To do so, we transiently transfected HEK293 WT cells with a plasmid containing one of the human SK channel subtypes, the big conductance calcium and voltage-activated potassium (BK) channel or the intermediate conductance calcium-activated potassium (IK) channel. […] Finally, a positive control was used to inhibit the remaining current and quantify the total effect of BBP. […]

Consider `c1cc(-c2nc3ccccc3[nH]2)nc(-c2nc3ccccc3[nH]2)c1` [BBP, 2,6-Bis(2-benzimidazolyl)pyridine], for which, on hIK, the “Effect on hIK current” value is on record as “did not have any effect; also recorded: remained unaffected; also recorded: not affected”. At hSK3, the half-inhibitory concentration (IC50) was 400 ± 200 nM. Besides, in the assay on all SK channel subtypes, the “Effect on all SK currents (in words)” value is given as “totally inhibited” and the “Voltage dependence of inhibition (−80 vs +80 mV)” value is on record as “no significant differences”. Moreover, the half-inhibitory concentration (IC50) at hSK2 is 400 ± 100 nM. Besides, the inhibition at 1 µM at hSK3 WT stood at 92.5 ± 2.3%.

What is called IC50 is the concentration that gives 50% inhibition. As usually defined, the inhibition is the change of the read-out against control, counted positive when it falls.
